No end group written: not given here.
Test system: cells of rat pituitary glands
Assay: in vitro GH release from cultured rat pituitary cells, side-by-side with synthetic hGRF(1-40)-OH standard, ir GH by radioimmunoassay
Type: cell-based
Conditions: equimolar concentrations; rat pituitary cell cultures; 4 hours incubation; immunoreactive GH in culture medium
Experimental: As an example of testing the effectiveness of the synthetic peptide of Example I to promote the release of growth hormone, in vitro assays are carried out using synthetic hGRF(1-40)-OH as a standard in side-by-side comparison with equimolar concentrations of the various other analogs and fragments synthesized. Cultures are used which include cells of rat pituitary glands removed four days previous to testing. Cultures which are considered optimal for the secretion of growth hormone are used for the comparative testing, in the general manner described in Vale et al. Endocrinology, 91, 562-572 (1972) and as more particularly described in Vale et al., Endocrinology, 112, 1553-1555 (1983). Incubation with the substance to be tested is carried out for 4 hours, and aliquots of the culture medium are removed and processed to measure their respective content of immunoreactive GH(ir GH) by a well-characterized radioimmunoassay.

Substance	potency to promote the release of growth hormone relative to the hpGRF(1-40)-OH standard
YADAIFSSAYRRLLAQLASRRLLQELLAR [Example II, [Ser^7,8,19, Ala^9,15,18,28, Arg^12,21, Leu^13,26,27]-hGRF(1-29)-OH]	equivalent to the hpGRF(1-40)-OH standard
YADAIFSSAYRRLLAQLASRRLLQELLAR-NH2 [Example I, [Ser^7,8,19, Ala^9,15,18,28, Arg^12,21, Leu^13,26,27]-hGRF(1-29)-NH2]	equivalent to the hpGRF(1-40)-OH standard

Source: patent US4689318A, “GRF analogs” (The Salk Institute for Biological Studies, priority 1985, dated 1987)
